Results reported in a melting point compilation (Tetko et al.; mined from patent text by program, amines drawn as free bases though some values may be those of a salt).

Row | SMILES | melting point
1 | Cc1nc(NC(=O)Nc2ccccc2)n(C)c(=O)c1CCN1CCN(c2noc3ccccc23)CC1 | 216 °C
2 | Cc1nc2c(Cl)cc3nc(O)c(O)nc3c2nc1C | > 300 °C
3 | CCCn1c(=O)c2[nH]c(/C=C/c3ccc(OC)c(Br)c3)nc2n(CCC)c1=O | 280 to 281 °C
4 | N=C(N)Nc1nc(CCCCC(=N)NS(N)(=O)=O)cs1 | 156 to 157 °C
5 | CCc1ccccc1-c1nc(-c2cccc(OC)c2)nn1C(=O)Nc1ccc(C)cc1 | 141 to 142 °C
6 | CN1N=C(c2ccc(F)cc2)c2cc3nsnc3cc2CS1(=O)=O | 272 to 275 °C
7 | N#CC(C#N)=C1N(CCCN2CCC(F)(F)C2)CCN1CCCN1CCC(F)(F)C1 | 122 to 124 °C
8 | CS(=O)(=O)c1ccccc1S(=O)(=O)Nc1cccc2cc(C3=NCCS3)[nH]c12 | 211 to 212 °C
9 | CNC(=O)c1cccc(NC(=O)Cc2cc(OC)cc(OC)c2)c1 | 146 to 147 °C
10 | O=Cc1nccn1Cc1cn(-c2ccc(Cl)c(Cl)c2)cn1 | 130 to 131 °C
11 | CCOC(=O)c1c(C)[nH]c(C)c1CC | 105 to 107 °C
12 | CC1(C)CC(OC(=O)CCCCCCCCC(=O)OC2CC(C)(C)N(OC3CCCCC3)C(C)(C)C2)CC(C)(C)N1OC1CCCCC1 | 56 to 59 °C
13 | CS(=O)(=O)c1ccc(-c2nc3cc(C4CCN(S(=O)(=O)CCCO)CC4)ccc3o2)c(F)c1 | 204 to 206 °C
14 | CC(=O)N(CCCC(=O)c1ccccc1)C(C)C | 36 to 39 °C
15 | Clc1cc(-c2ccncc2)ccn1 | 193 to 196 °C
16 | CCSc1cc(C=NO)c(Cl)cn1 | 128 to 130 °C
17 | O=[N+]([O-])c1cc(-c2nc3ccccc3s2)ccc1O | 214 to 215 °C
18 | Cc1cccc(O[C@@H]2CCNC[C@H]2O)c1C (relative stereo) | 127 to 129 °C
19 | O=C(Cn1ccnc1)c1cccs1 | 87 to 89 °C
20 | CC(C)(C)c1cccc(C[C@H]2NC(=O)O[C@H]2c2cccc(Cl)c2)c1 (racemic) | 136 to 137 °C
21 | O=C(O)c1cn2c(nc1=O)CCCCC2 | 198 °C
22 | CCCOc1ccccc1-c1cccc(=O)[nH]1 | 134 to 136 °C

Row | SMILES | melting point
23 | CC(C)(CF)C(O)C(Oc1ccc(Cl)cc1)n1cncn1 (centres undefined) | 103 to 112 °C
24 | CNC(=O)c1cccc(Cl)c1Nc1nc(Nc2ccc3c(c2)CCCC(=O)N3CCOC)ncc1Cl | 136 to 157 °C
25 | O=C(O)CCc1ccc(C(=O)NCc2ccccn2)cc1 | 83.8 °C
26 | c1ccc2c(c1)CC1CN(Cc3c[nH]c4ncccc34)CCN21 (centres undefined) | 197 to 198 °C
27 | CC(=O)c1cc(NC(=O)c2ccccc2)cc(C(C)=O)c1 | 188 to 189 °C
28 | CCOCC1OC(n2cnc3c(N)ncnc32)C(O)C1O (centres undefined) | 110 to 112 °C
29 | Cc1nc(N2CCc3ccccc3CC2)c(C#N)c(=O)n1N(C)C(=O)OC(C)(C)C | 164 to 166 °C
30 | O=Cc1cc(Br)c(C=O)cc1Br | 184 to 189 °C
31 | CCOC(=O)CCC(=O)Nc1ccc(-c2c[nH]c(=O)cn2)cc1 | 250 °C
32 | CC(C)(C#N)c1cc(Cn2cncn2)cc(C(C)(C)C#N)c1 | 81 to 82 °C
33 | CN(c1cccc2cc(-c3ncc(CO)s3)[nH]c12)S(=O)(=O)c1cccs1 | 201 to 202 °C
34 | CCCc1c(CC)sc2[nH]c(=O)c(=O)[nH]c12 | 295 to 298 °C
35 | CC(=O)n1nc(-c2nc3ccccc3o2)oc1=O | 231 to 232 °C
36 | CCc1nc2c(N)nc3ccccc3c2n1CCOCCNC(=O)N1CCOCC1 | 182 to 184 °C
37 | COc1ccc(C(=O)Nc2ccc(-c3ccc(-c4noc(C)n4)cc3C)cc2)cc1CCCN(C)C | 163 to 165 °C
38 | CN1CCN(S(=O)(=O)c2ccccc2NC(=O)N[C@@H](Cc2ccc(NC(=O)c3c(Cl)cncc3Cl)cc2)C(=O)O)CC1 | 189 °C
39 | COc1ccc(CN2C(=O)C(C)(c3cc(N(C)C(=O)CN(C)C)ccc3Cl)c3cc(Cl)ccc32)c(OC)c1 (centres undefined) | 104 °C
40 | Sc1nc2cccccc-2n1 | 300 °C
41 | CCOC(=O)c1ccc(C(=O)O)c2c([N+](=O)[O-])cccc12 | 178 to 180 °C
42 | Cc1nc(-c2ccc(-c3ccccc3S(=O)(=O)Nc3onc(C)c3C)cc2)oc1C | 96 to 102 °C
43 | O=C(O)[C@H](Cc1ccc(C(F)(F)F)cc1)[C@H](O)c1ccc(F)cc1 (racemic) | 111 to 112 °C
44 | CN(CC1OCCO1)c1nccc(Oc2ccc(NC(=O)c3cc(F)cc(N4CCCCC4)c3)c3ccccc23)n1 | 125 to 127 °C

Row | SMILES | melting point
45 | CCN(C(=O)c1ccccc1-c1ccccc1)C(C)(C)c1ccccc1 | 121 to 122 °C
46 | Oc1cccc(/C=C/c2nc(-c3ccccc3)cs2)c1 | 150 to 151 °C
47 | O=C(c1cccs1)c1cnn2c(-c3cccc(-c4nnn(CCN5CCOCC5)n4)c3)ccnc12 | 103 °C
48 | CCCCSC(=NC(C)=O)Nc1c(Cl)cccc1Cl | 84 to 89 °C
49 | Clc1ccc2c(c1)CNc1ccccc1O2 | 123 to 125 °C
50 | CS(=O)(=O)NCCSc1cccc2nccn12 | 130 to 131 °C
51 | O=C1C[C@]2(c3ccccc3)CCCC[C@H]2C(=O)N1 (relative stereo) | 180 to 182 °C
52 | ON=Cc1ccc2c(c1)Sc1ccccc1C=C2 | 206 to 207 °C
53 | O=C1CCN(Cc2ccccc2OC(F)F)CC1C(c1ccc(F)cc1)c1ccc(F)cc1 (centres undefined) | 83 to 84 °C
54 | C=CCNC(=O)NC(=O)c1c(Cl)cccc1[Si](C)(C)C | 68 to 71 °C
55 | O=C(Cc1ccc(F)cc1)c1c(O)c2cccnc2n(-c2ccccc2)c1=O | 185 to 187 °C
56 | COCOc1cc(F)ccc1-c1cc(-c2cccc(Br)c2)c(C#N)c(N)n1 | 165 to 166 °C
57 | Nc1nc(C2CCN(C(=O)Cc3ccc4c(c3)OCO4)CC2)c2ccccc2n1 | 167 to 168 °C
58 | N#Cc1ccc(Nc2cc(Cc3c(Cl)cccc3Cl)nc(NCCCN3CCCC3=O)n2)cc1 | 104 to 114 °C
59 | C[C@](O)(CBr)C(=O)Nc1ccc(C#N)c(C(F)(F)F)c1 | 124 to 126 °C
60 | COC(=O)C=CCC1C(=O)N2C(C(=O)OCc3ccc([N+](=O)[O-])cc3)=CCC12 (centres undefined) | 109 to 111 °C
61 | CCOc1cccc(-n2nc(C)c3c(O)c(C(=O)c4ccccc4)cnc32)n1 | 160 to 162 °C
62 | COc1ccc2c(c1)c(Cc1cc(=O)n(-c3cc(C)cc(C)c3)[nH]1)c(C)n2C(=O)c1ccc(Cl)cc1 | 77.5 to 79 °C
63 | C#CCn1nc(-c2ccc(F)cc2)c(-c2ccc(S(C)(=O)=O)cc2)cc1=O | 168 to 169 °C
64 | CN(C)C(=O)Nc1cccc(C#N)n1 | 125 °C

Second part, the compound after the results:

Row | melting point | SMILES
65 | 54 to 55.2 °C | CCCCN(C)C(=O)OCCCc1ccc(OCCOC)cc1Oc1ncc(C(F)(F)F)cc1Cl
66 | 165 to 166 °C | CN(C)c1ccc(C2(CNC(=O)Nc3c(F)cc(F)cc3CCc3cc(C(C)(C)C)c(O)c(C(C)(C)C)c3)CCCC2)cc1
67 | > 260 °C | COC(=O)c1ccc(C=CC(=O)N2CCc3c([nH]c4ccccc34)C2c2ccc3c(c2)CCO3)nc1 (centres undefined)
68 | 184 to 190 °C | COc1ccccc1-c1n[nH]c2c(Cl)cc(C)nc12
69 | 118 to 120 °C | COC(=O)C(Cc1ccc(OCc2nc3ccc(Oc4ccc(C56CC7CC(CC(C7)C5)C6)cc4)cc3n2C)cc1)OCc1ccc(F)cc1 (centres undefined)
70 | 100 to 102 °C | CCc1noc(-c2cn(-c3cc(Cl)ccc3OCc3ccccc3)cn2)n1
71 | 243 to 244 °C | NC1=NC(c2ccccc2)=NCC1(N)N=O (centres undefined)
72 | 255 to 256 °C | c1ccc2c(c1)nc1snc(-c3cnccn3)n12
73 | 272 to 273 °C | O=C1CCC(c2ccc(NC(=O)C3CC3)cc2)=NN1
74 | 82 to 88 °C | CCCCCCCCCCCCCCCCCCON1C(=O)c2ccccc2C1=O
75 | 215 to 218 °C | O=C1CCC(c2ccc3[nH]c(-c4cccc(C(F)(F)F)c4)cc3c2)=NN1
76 | 147 to 149 °C | O=c1oc(=O)n(CCc2ccccc2)c2ncccc12
77 | 198 to 199 °C | CCOc1c(C(=O)O)cnc2c1cnn2CC
78 | > 250 °C | O=C1N(Cc2ncccc2C(F)(F)F)c2cccnc2C12COc1cc3c(cc12)OCCO3 (centres undefined)
79 | 89 to 90 °C | CCCC(=O)c1cc(-c2ccccc2)no1
80 | 102 °C | N#CC1(CC(=O)O)CCCCC1
81 | 91 to 93 °C | Cc1cn(N=Cc2ccccc2)cn1
82 | 63 to 64 °C | Clc1ccc(C(Cl)Cl)c(C(Cl)Cl)c1

Row | melting point | SMILES
83 | 160 °C | CNC(=O)c1ccccc1Nc1nc(Nc2c(OC)ccc3c2CCOC(=O)N3C)ncc1Cl
84 | 175 to 176 °C | C[C@@H](SCCc1nccn1C)[C@](O)(Cn1cncn1)c1ccc(F)cc1F (racemic)
85 | 99 to 102 °C | O=C(CCC1CCCCCCCCCCC1)C1=C(O)COC1=O
86 | 157 °C | COc1cc(-c2nc3ccccc3n2Cc2c(Cl)cccc2Cl)cc(OC)c1OC
87 | 67 °C | COc1ccc(C2CCCCC2)cc1-c1csc(N)n1
88 | 206 to 208 °C | Cc1ccc(NC(=O)c2ccc(C(=O)Nc3ccccc3NC(=O)OC(C)(C)C)s2)cc1Nc1nccc(-c2cccnc2)n1
89 | 125 to 130 °C | CC=CC1OC(=O)c2ccc(N)cc21 (centres undefined)
90 | 133 to 134 °C | CCOCn1c(C(=O)c2ccccc2)c(CC)c(=O)[nH]c1=O
91 | 113 to 115 °C | CC(=O)S[C@H]1CC[C@H](/C=C/C=C/c2ccc(C(F)(F)F)cc2)CC1
92 | 63 to 71 °C | CCC1CCCCc2c1oc(=O)c(C(c1ccccc1)C1CC1)c2O (centres undefined)
93 | 132 to 134 °C | O=S(=O)(CCCN1CCN(c2ncc(F)cn2)CC1)c1ccc(F)cc1
94 | 104 °C | CCCCCCCNC(=O)N(C)c1ccc(C)c(-c2ccc(CCC(=O)O)cc2)c1
95 | 190 to 192 °C | CC(Cl)c1nc2c(C(F)(F)F)cccc2c(O)c1C(=O)Nc1nccs1 (centres undefined)
96 | 67 to 68 °C | COC(=O)CCCC=Cc1nn(-c2ccc(F)cc2)c2c1CCC2
97 | 167 °C | COc1cccc(C(=O)Nc2nc(C(=O)c3ccc([N+](=O)[O-])c(OC)c3)n3ccccc23)c1
98 | 78 to 80 °C | C=CCn1cc(Cc2ccc(C(=O)O)cc2OC)c2cc(CC(=O)NCCCC)ccc21
99 | 137 to 139 °C | O=C1NC(=O)C(CC#Cc2ccc(Cl)cc2)(Sc2nc3ccccc3o2)S1 (centres undefined)
